Residues, ends and D or L forms follow the SMILES beside them.
Test: in vivo
Set-up: species or system NMRI mice
Settings: male, NMRI, mouse, iv
Description: Example 5: Pharmacokinetics Intravenous (iv) PK in Mouse Pharmacokinetic parameters of the test compounds were determined after intravenous administration to Naval Medical Research Institute (NMRI) mice. Male NMRI mice were obtained either from Charles River (Germany) or from Janvier (France) weighing approximately 30 g to 40 g. Mice were housed in standard cages with light cycle of 12-hour dark and 12-hour light. Standardized food and water were offered ad libitum to the animals during the whole experimental period. The respective peptide was dissolved in 50 mM phosphate buffer (pH 7.4) containing 3.5% mannitol. Intravenous doses of 30 nmol/kg were given via a tail vein. Serial blood samples were collected from the vena saphena into tubes containing EDTA as anticoagulant at different time points up to 48 hours post dosing. After centrifugation for approximately 5 minutes, plasma samples were transferred to 96-well Polymerase Chain Reaction (PCR) plates, immediately frozen and kept at approximately −20° C. until analyzed for plasma concentration by liquid chromatography mass spectrometry (LC-MS/MS). Individual plasma concentration-time profiles were analyzed by a non-compartmental approach, and the resulting pharmacokinetic parameters were determined.

SMILES	MRT (30 nmol/kg)	MRT
CCCC[C@H](NC(=O)[C@H](CC(C)C)N(C)C(=O)[C@H](Cc1ccccc1)NC(=O)[C@H](Cc1ccc(O)cc1)NC(=O)CN1CCN(CCNC(=O)CN(C)C(=O)CN(C)C(=O)CN(C)C(=O)CN(C)C(=O)CN(C)C(=O)CN(C)C(=O)CN(C)C(=O)CN(C)C(=O)CN(C)C(=O)CN(C)C(=O)CN(C)C(=O)CN(C)C(=O)CN(C)C(=O)CN(C)C(=O)CN(C)C(=O)CC[C@H](NC(=O)CC[C@H](NC(=O)CC[C@H](NC(=O)CCCCCCCCCCCCCCCCC(=O)O)C(=O)O)C(=O)O)C(=O)O)CC1)C(=O)N[C@@H](CCN)C(=O)N1CCC[C@H]1C(=O)N[C@@H](CCCNC(=N)N)C(=O)NCC(N)=O [Compound 26, C18DA-gGlu3-Sar15-AEPipAc-Tyr-Phe-NMeLeu-Nle-Dbu-Pro-Arg-Gly-NH2] (HELM PEPTIDE1{[O=C(O)CCCCCCCCCCCCCCCCC(=O)[*:2]].[gGlu].[gGlu].[gGlu].[Sar].[Sar].[Sar].[Sar].[Sar].[Sar].[Sar].[Sar].[Sar].[Sar].[Sar].[Sar].[Sar].[Sar].[Sar].[O=C(CN1CCN(CCN[*:1])CC1)[*:2]].Y.F.[meL].[Nle].[Dab].P.R.G.[am]}$$$$V2.0)	12.4 h	–
CCCC[C@H](NC(=O)[C@H](CC(C)C)N(C)C(=O)[C@H](Cc1ccccc1)NC(=O)[C@H](Cc1ccc(O)cc1)NC(=O)CN1CCN(CCNC(=O)CN(C)C(=O)CN(C)C(=O)CN(C)C(=O)CN(C)C(=O)CN(C)C(=O)CN(C)C(=O)CN(C)C(=O)CN(C)C(=O)CN(C)C(=O)CN(C)C(=O)CN(C)C(=O)CN(C)C(=O)CN(C)C(=O)CN(C)C(=O)CN(C)C(=O)CC[C@H](NC(=O)CC[C@H](NC(=O)CC[C@H](NC(=O)CCCCCCCCCCCCCCCCCCC(=O)O)C(=O)O)C(=O)O)C(=O)O)CC1)C(=O)N[C@@H](CCCN)C(=O)N1CCC[C@H]1C(=O)N[C@@H](CCCNC(=N)N)C(=O)NCC(N)=O [Compound 1, C20DA-gGlu3-Sar15-AEPipAc-Tyr-Phe-NMeLeu-Nle-Orn-Pro-Arg-Gly-NH2] (HELM PEPTIDE1{[O=C(O)CCCCCCCCCCCCCCCCCCC(=O)[*:2]].[gGlu].[gGlu].[gGlu].[Sar].[Sar].[Sar].[Sar].[Sar].[Sar].[Sar].[Sar].[Sar].[Sar].[Sar].[Sar].[Sar].[Sar].[Sar].[O=C(CN1CCN(CCN[*:1])CC1)[*:2]].Y.F.[meL].[Nle].[Orn].P.R.G.[am]}$$$$V2.0)	38.1 h	38.1 h
CCCC[C@H](NC(=O)[C@H](CC(C)C)N(C)C(=O)[C@H](Cc1ccccc1)NC(=O)[C@H](Cc1ccc(O)cc1)NC(=O)CN1CCN(CCNC(=O)CN(C)C(=O)CN(C)C(=O)CN(C)C(=O)CN(C)C(=O)CN(C)C(=O)CN(C)C(=O)CN(C)C(=O)CN(C)C(=O)CN(C)C(=O)CN(C)C(=O)CN(C)C(=O)CN(C)C(=O)CN(C)C(=O)CN(C)C(=O)CN(C)C(=O)CC[C@H](NC(=O)CC[C@H](NC(=O)CC[C@H](NC(=O)CCCCCCCCCCCCCCCCC(=O)O)C(=O)O)C(=O)O)C(=O)O)CC1)C(=O)N[C@@H](CCCNC(=N)N)C(=O)N1CCC[C@H]1C(=O)N[C@@H](CCCNC(=N)N)C(=O)NCC(N)=O [Compound 7, C18DA-gGlu3-Sar15-AEPipAc-Tyr-Phe-NMeLeu-Nle-Arg-Pro-Arg-Gly-NH2] (HELM PEPTIDE1{[O=C(O)CCCCCCCCCCCCCCCCC(=O)[*:2]].[gGlu].[gGlu].[gGlu].[Sar].[Sar].[Sar].[Sar].[Sar].[Sar].[Sar].[Sar].[Sar].[Sar].[Sar].[Sar].[Sar].[Sar].[Sar].[O=C(CN1CCN(CCN[*:1])CC1)[*:2]].Y.F.[meL].[Nle].R.P.R.G.[am]}$$$$V2.0)	17.4 h	17.4 h
CCCC[C@H](NC(=O)[C@H](CC(C)C)N(C)C(=O)[C@H](Cc1ccccc1)NC(=O)[C@H](Cc1ccc(O)cc1)NC(=O)CN1CCN(CCNC(=O)CN(C)C(=O)CN(C)C(=O)CN(C)C(=O)CN(C)C(=O)CN(C)C(=O)CN(C)C(=O)CN(C)C(=O)CN(C)C(=O)CN(C)C(=O)CN(C)C(=O)CN(C)C(=O)CN(C)C(=O)CN(C)C(=O)CN(C)C(=O)CN(C)C(=O)CC[C@H](NC(=O)CC[C@H](NC(=O)CC[C@H](NC(=O)CCCCCCCCCCCCCCCCCCC(=O)O)C(=O)O)C(=O)O)C(=O)O)CC1)C(=O)N[C@@H](CCN)C(=O)N1CCC[C@H]1C(=O)N[C@@H](CCCNC(=N)N)C(=O)NCC(N)=O [Compound 42, C20DA-gGlu3-Sar15-AEPipAc-Tyr-Phe-NMeLeu-Nle-Dbu-Pro-Arg-Gly-NH2] (HELM PEPTIDE1{[O=C(O)CCCCCCCCCCCCCCCCCCC(=O)[*:2]].[gGlu].[gGlu].[gGlu].[Sar].[Sar].[Sar].[Sar].[Sar].[Sar].[Sar].[Sar].[Sar].[Sar].[Sar].[Sar].[Sar].[Sar].[Sar].[O=C(CN1CCN(CCN[*:1])CC1)[*:2]].Y.F.[meL].[Nle].[Dab].P.R.G.[am]}$$$$V2.0)	31.2 h	–
CCCC[C@H](NC(=O)[C@H](CC(C)C)N(C)C(=O)[C@H](Cc1ccccc1)NC(=O)[C@H](Cc1ccc(O)cc1)NC(=O)CN1CCN(CCNC(=O)CN(C)C(=O)CN(C)C(=O)CN(C)C(=O)CN(C)C(=O)CN(C)C(=O)CN(C)C(=O)CN(C)C(=O)CN(C)C(=O)CN(C)C(=O)CN(C)C(=O)CN(C)C(=O)CN(C)C(=O)CN(C)C(=O)CN(C)C(=O)CN(C)C(=O)CC[C@H](NC(=O)CC[C@H](NC(=O)CC[C@H](NC(=O)CCCCCCCCCCCCCCCCCCC(=O)O)C(=O)O)C(=O)O)C(=O)O)CC1)C(=O)N[C@@H](CCN)C(=O)N(C)[C@@H](C)C(=O)N[C@@H](CCCNC(=N)N)C(=O)NCC(N)=O [Compound 43, C20DA-gGlu3-Sar15-AEPipAc-Tyr-Phe-NMeLeu-Nle-Dbu-NMeAla-Arg-Gly-NH2] (HELM PEPTIDE1{[O=C(O)CCCCCCCCCCCCCCCCCCC(=O)[*:2]].[gGlu].[gGlu].[gGlu].[Sar].[Sar].[Sar].[Sar].[Sar].[Sar].[Sar].[Sar].[Sar].[Sar].[Sar].[Sar].[Sar].[Sar].[Sar].[O=C(CN1CCN(CCN[*:1])CC1)[*:2]].Y.F.[meL].[Nle].[Dab].[meA].R.G.[am]}$$$$V2.0)	37.7 h	–
